In data set [1] the target is T1, full length (1-55) HIV-1 NCp7 (Human immunodeficiency virus type 1 group M subtype B, UniProt P12493).
T1 construct: recombinant full length (1-55) HIV-1 NCp7 proteins; made in house
The experiment in a line: Electromobility Shift Assay (EMSA), competition for ssDNA binding. The note with it: NCp7 300 nM, M13mp18 ssDNA; positive = >25% inhibition at 100µM. The text has this: The assay used a recombinant full length (1-55) HIV-1 NCp7 proteins based on the NL4-3 sequence (GenBank accession number AF324493). The protein was expressed and purified as described in [Carteau, S., Gorelick, R. J. & Bushman, F. D. Coupled integration of human immunodeficiency virus type 1 cDNA ends by purified integrase in vitro: stimulation by the viral nucleocapsid protein. Journal of virology 73, 6670-6679 (1999)].
Competition for single-stranded (ss) DNA binding was realized by mixing 1 µL of serial dilutions of NC inhibitors (diluted in DMSO) with 44 µL of NCp7 (300 nM) in a reaction buffer (20 mM Tris-HCl pH 7.4, 2 mM MgCl2, 100 mM NaCl, 1 mM DTT). 5 µL of a 10 ng/µL (4 nM) solution of M13mp18 ssDNA (BayouBiolabs) were then added and the tubes were incubated for 25 minutes at 37 °C. The reaction was terminated by chilling the tubes on ice followed by the addition of 5 µL of a loading buffer (30% glycerol, 0.01% xylene cyanol, 10 mM Tris-HCl pH 7.4). Samples were then resolved on 25 cm-long, 1% (w/v) agarose gels (SeaKem LE Agarose, Lonza) in 0.5x TBE. Gels were run in a Sub-Cell GT cuvette (BioRad) for 18 h at room temperature at 3 V/cm, stained with SybrGold (Molecular Probes) and scanned for fluorescence using a Typhoon 8600 (GE Healthcare). The experiments were performed in triplicate. Competition efficiency was realized by measuring the relative distance in pixels between the unbound ssDNA control, the NCp7-bound ssDNA control and the bound ssDNA for each points of the titration with the ImageQuant software. The IC50 was estimated as the NC inhibitors concentrations for which the bound ssDNA migrated at 50% of the distance separating the bound from the unbound ssDNA.
(In general: Mobility shift assays separate free from complexed probe on a gel.)

For data set [2], the system named is Peripheral blood mononuclear cells (PBMC). The class given is cell-based. Conditions: human, 7 days. On the procedure:
Peripheral blood mononuclear cells (PBMC) obtained from healthy donors by separation over Ficoll-Hypaque (GEHealthear-Cat.# GEH17-1440-02) were suspended at 2x10^6 cells/mL in RPMI 1640 (Biowest-Cat.#L0501-500) supplemented with 10% of heat-inactivated sterile fetal bovine serum (Gibco-Cat.#10270-106), 2 mmol/l L-glutamine (Biowest-Cat.#X0550-100), 50 U/mL Penicillin-50 µg/mL Streptomycin (Biowest-Cat.#L0022-100), referred to as complete medium (CM). PBMC were supplemented with 5 µg/mL of phytohaemagglutinin (Sigma Aldr-Cat.#L1668) and cultured in 75 cm^2 flasks (Sarsted-Cat.#833.911.002) for 2 days at 37 °C in a humidified atmosphere with 5% CO2.
PBMC were then washed in CM, counted by trypan blue exclusion (Gibco-Cat. #15250-061), centrifuged and suspended in fresh CM supplemented with 20 IU/mL recombinant human IL-2 (Miltenyi Biotec-Cat.#130-097-748) and seeded in a 96-well-tissue culture plate (Sarsted-Ca#831.837) at the density of 5x10^5 cells/mL (or 1x10^5 cells in 200 µL final CM volume per well). Cells were left untreated (negative control) or treated with different concentrations of the compounds.
After 7 days of incubation cytotoxicity was determined using Promega's CellTiter 96(R) AQueous One Solution Cell Proliferation Assay (MTS assay) (Promega-Cat.#G3581) according to the manufacturer's instuctions. This is a colorimetric method for determining the number of viable cells in proliferation or cytotoxicity assays. The MTS tetrazolium compound is bioreduced by cells into a colored formazan product that is soluble in tissue culture medium. This conversion is presumably accomplished by NADPH or NADH produced by dehydrogenase enzymes in metabolically active cells.
Briefly, MTS solution was thawed at room temperature, or in a water bath at 37 °C and 40 µL of MTS solution was pipeted into each well of the 96-well assay plate containing the samples in 200 µL of culture medium and incubated at 37 °C, 5% CO2 for 4 hours. The optical density was read at 490 nm using a 96-well plate reader (Tecan Infinite F50) and TD50 (toxic dose 50%, dose killing 50% of the cells compared to untreated control) value was calculated by interpolation of the curve obtained by plotting dose against percent mortality and by using "Magellan data analysis software". CM alone plus MTS solution was used as a blank, and cell culture well without compound was used as a cellular control.

The target in data set [3] is NC(11-55) (Human immunodeficiency virus type 1, UniProt P12493). The experiment in a line: NC inhibition assay (NC-induced cTAR DNA destabilization, fluorescence). Conditions: for inhibition at 100 µM: single point screening, positive = >25% inhibition at 100µM. The class given is biochemical, HIV-1. The text has this: The NC inhibition assay is based on the nucleic acid chaperone activity of the NC protein. NC destabilizes the secondary structure of cTAR DNA, the complementary sequence of the transactivation response element, which is involved in minus-strand DNA transfer during reverse transcription. In the assay, the cTAR sequence from the HIV-1 Mal strain (Bernacchi et al, J Mol Biol, 2002) is labeled with a dye (Alexa488 fluorophore) and a quencher 4-(4'-dimethylaminophenylazo)benzoic acid (Dabcyl) at its 5' and 3' ends, respectively. In the absence of destabilization, the close proximity of both cTAR ends results in a strong fluorescence quenching of the dye emission by the Dabcyl group. NC(11-55) added to cTAR at a ratio of 10 NC/cTAR melts the bottom of the cTAR stem, which increases the distance between the dye and the quencher and as a result increases the dye fluorescence signal [Shvadchak et al, (2009) Identification by high throughput screening of small compounds inhibiting the nucleic acid destabilization activity of the HIV-1 nucleocapsid protein. Biochimie, 916-923]. NCIs are expected to prevent the NC-induced destabilization of cTAR and thus reverse the NC-induced increase in the fluorescence of the labeled cTAR. The activity of the inhibitor is thus evaluated from the ratio of the fluorescence intensity observed in the presence of NC with the molecule to the one in the absence of the compound.
The doubly labelled cTAR DNA oligonucleotides (55nt) were synthesised and purified by IBA GmbH Nucleic Acids Product Supply (Göttingen, Germany). Extinction coefficient at 260 nm of 5.73 x 10^5 M^-1 cm^-1 was used to determine the concentration of cTAR.
The NC(11-55) peptide (Avilov et al, Antimicrob Agents Chemother, 2012) was synthesized by solid-phase peptide synthesis on a 433A synthesizer (ABI, Foster City, CA) as previously described [De Rocquigny H, (1991) First large scale chemical synthesis of the 72 amino acid HIV-1 nucleocapsid protein NCp7 in an active form. Biochem Biophys Res Commun., 1010-1018]. The peptide was stored lyophilized and was resuspended in water before use. The concentration of peptide was determined by using an extinction coefficient of 5.7 x 10^3 M^-1 cm^-1 at 280 nm. Next, 2.5 molar equivalents of ZnSO4 were added and pH was raised to its final value by adding buffer.
All experiments were performed at 20 °C in 25 mM Tris-HCl (pH 7.5), 30 mM NaCl, and 0.2 mM MgCl2. To evaluate the inhibition activity of compounds on NC-induced cTAR destabilization, cTAR DNA (0.1 µM) was preincubated with 1 µM NC(11-55) (molar ratio NC:cTAR = 10:1) for 15 min at room temperature before addition of compound. For single point screening, all compounds were tested at three final concentrations: 1 µM, 10 µM and 100 µM. For the IC50 determination, inhibition of NC-induced cTAR melting was monitored through addition of increasing concentrations of the selected molecules to the pre-formed NC(11-55)-cTAR complex. After the addition of compound, the mixture was incubated for 15 min at room temperature before the reading. The fluorescence signal was recorded with a plate reader Xenius (SAFAS Monaco) or Fluoromax 3 spectrofluorometer (Horiba Jobin-Yvon), and the excitation and emission wavelengths were 480 and 520 nm, respectively. The spectra were corrected for dilution, buffer fluorescence and screening effect (when it was required). In order to check the occurrence of aggregation, we performed additional reading of absorption with the plate reader Xenius (SAFAS Monaco) or Cary 4000 spectrophotometer (Agilent). […]

The subject of data set [4] is HIV-1 reference strain NL4-3. Put plainly: BiCycle assay (MT-2 then TZM-bl cells). The class given is cell-based. The note with it: Human immunodeficiency virus 1, NL43, TZM-bl, read-out: BiCycle IC50 nM. On the procedure:
BiCycle Assay is cell based assay allowing the evaluation of the antiviral activity of HIV-1 inhibitors on the whole replication cycle of HIV-1. The assay consists in a first round of infection of the T-cell line MT-2 followed by infection of TZM-bl cells. MT-2 cells were seeded at a concentration of 50,000 cells/well in a 96-well plate and infected with the HIV-1 reference strain NL4-3 in presence of five-fold dilutions of the investigational compounds. After 72 hours, 50 µl of supernatant from each well, containing the virus produced in the first round of infection, were used to infect TZM-bl cells seeded in a 96-plate well at a concentration of 30,000 cells/well. Two days later, cells were lysed adding 40 µl of Glo Lysis Buffer (Promega) to each well for 5 minutes, then 40 µl of Brighy-Glo Luciferase Reagent (Promega) were added to each well for relative luminescence units (RLU) counting using Glo-Max Multi Detection System (Promega). RLU values from each well were elaborated using the GraphPad v5.0 software to calculate the IC50 of each compound.

[5] abbreviates: cTAR DNA 0.1 µM, 1 µM NC(11-55), 20 °C, pH 7.5, read-out: NC inhibition IC50.

Like-named read-outs stand apart in the source and are kept apart here.

The term IC50 denotes the point on the concentration scale where inhibition reaches its midpoint. Usually inhibition stands for the percentage by which the read-out fell short of the control. A high value points to a response far below the control. Consider `C[C@@H](NC(=O)c1nc(-c2ccc(N3CCN(C)CC3)cn2)nc(O)c1O)C1CCCCC1` [Compound 94, (R)-N-(1-cyclohexylethyl)-5,6-dihydroxy-2-(5-(4-methylpiperazin-1-yl)pyridin-2-yl)pyrimidine-4-carboxamide], for which, in data set [1], the EMSA screening results was “Negative”. Further, the “Proliferation assay PBMC TD50” value in data set [2] is on record as 740 nM. In data set [3], this compound came in with an IC50 of 18 µM and an inhibition at 100 µM greater than 25%.
`O=C(NC1(C2CCCCC2)CC1)c1nc(-c2cc3ccccc3cn2)nc(O)c1O` [Compound 83, N-(1-cyclohexylcyclopropyl)-5,6-dihydroxy-2-(isoquinolin-3-yl)pyrimidine-4-carboxamide]: the EMSA screening results in data set [1] is listed as “Positive (A compound showing >25% inhibition when tested at 100µM concentration is considered as "positive")”. The inhibition at 100 µM in data set [3] is greater than 25%.
For the compound `CCNCc1ccnc(-c2nc(O)c(O)c(C(=O)N[C@H](C)C3CCCCC3)n2)c1` [Compound 95, (R)-N-(1-cyclohexylethyl)-2-(4-((ethylamino)methyl)pyridin-2-yl)-5,6-dihydroxypyrimidine-4-carboxamide], the EMSA screening results in data set [1] was “Negative”. The IC50 in data set [3] (setting [5]) turned out to be 28 µM. In data set [3], this compound returned an inhibition at 100 µM greater than 25%.
Regarding `C[C@@H](NC(=O)c1nc(-c2ncccc2NC(=O)OC(C)(C)C)nc(O)c1O)C1CCCCC1` [Compound 42, tert-butyl (R)-(2-(4-((1-cyclohexylethyl)carbamoyl)-5,6-dihydroxypyrimidin-2-yl)pyridin-3-yl)carbamate], in data set [1], the EMSA screening results was “Positive (A compound showing >25% inhibition when tested at 100µM concentration is considered as "positive")”. In addition, the IC50 stood at 14.5 µM in data set [3] (setting [5]) and 1600 nM in data set [4]. The compound further yielded an inhibition at 100 µM in data set [3] greater than 25%.
As to `C[C@@H](NC(=O)c1nc(-c2cc(CNCc3ccccc3)ccn2)nc(O)c1O)C1CCCCC1` [Compound 96, (R)-2-(4-((benzylamino)methyl)pyridin-2-yl)-N (1-cyclohexylethyl)-5,6-dihydroxypyrimidine-4-carboxamide], the EMSA screening results in data set [1] is “Negative”. In data set [3], the inhibition at 100 µM is greater than 25%.
`C[C@@H](NC(=O)c1nc(-c2cc([N+](=O)[O-])ccn2)nc(O)c1O)C1CCCCC1` [Compound 40, (R)-N-(1-cyclohexylethyl)-5,6-dihydroxy-2-(4-nitropyridin-2-yl)pyrimidine-4-carboxamide]: the EMSA screening results in data set [1] is on record as “Positive (A compound showing >25% inhibition when tested at 100µM concentration is considered as "positive")”. The IC50 in data set [3] (setting [5]) stood at 6.35 µM. The compound further displayed an inhibition at 100 µM in data set [3] greater than 25%.

The record behind these values is patent publication EP3290412A1, “HIV-1 NUCLEOCAPSID INHIBITORS” (Università degli Studi di Siena, priority 2016, dated 2018).
